Laboratory results reported in patent US6521594B1, “Method and composition for treating thrombosis” (La Jolla Cancer Research Foundation, priority 1990, dated 2003).
Where two headings read alike, the source gives them in different places. Non-standard residues stand in square brackets, D forms with d. No end group written: not given here. *: point of attachment. Pmc = Cc1c(C)c(S(=O)(=O)*)c(C)c2c1OC(C)(C)CC2; Pen = CC(C)(S)[C@H](N)C(=O)O

Key:
platelets [1] = biological target: T1, platelets (Homo sapiens, UniProt P05106+P08514); assay type: cell-based; settings: ADP 10 μm; citrated PRP; read-out: ADP-Stimulated Aggregation (IC50)
Description: Briefly, the change in light transmission was measured through a stirred suspension of platelets in an aggregometer (Model 400 VS, Chrono-Log, Havertown, Pa., USA). […] In studies using thrombin, the PRP was gel-filtered on Sepharose 2B in divalent ion-free Tyrode's solution containing 2% BSA. For all studies, the reference standard was platelet-poor plasma, which was obtained by centrifuging PRP at 1000×g for 5 min.
(§5) All aggregation studies were performed at 37° C. with a constantly stirred suspension of 3×10^8 platelets/ml. (Platelet count was determined with the aid of a hemacytometer.) Peptides and stimulants were added to these suspensions in 1% dilutions. The PRP and gel-filtered platelets were used within three hours from the time of blood collection.
(§6) Peptide anti-aggregation potencies were determined from dose-responsive curves for the inhibition of the maximum aggregation responses stimulated by physiologic doses of ADP (10 μm) and thrombin (2 U/ml).

platelets [2] = biological target: T1, platelets; test: Thrombin-stimulated platelet aggregation (gel-filtered platelets); assay type: cell-based; settings: thrombin 2 U/ml
Description: as §5, §6

platelets [3] = biological target: T1, platelets; test: Platelet aggregation assay (Examples XI.G and XII); assay type: cell-based; settings: for fold increase in platelet aggregation potency on substitution of Leu in analogue 5: comparator analogue 5
Description: Platelet aggregation was assessed using the method of Born, Nature 194:927-929 (1962), incorporated herein by reference. Briefly, the change in light transmission was measured through a stirred suspension of platelets in an aggregometer (Model 400 VS, Chrono-Log, Havertown, Pa., USA). Studies employing ADP were performed with platelet-rich plasma (PRP), which was obtained by low-speed centrifugation (200×g for 10 min.) of whole blood freshly drawn into trisodium citrate (at a final concentration of 11 mM). In studies using thrombin, the PRP was gel-filtered on Sepharose 2B in divalent ion-free Tyrode's solution containing 2% BSA. For all studies, the reference standard was platelet-poor plasma, which was obtained by centrifuging PRP at 1000×g for 5 min.
All aggregation studies were performed at 37° C. with a constantly stirred suspension of 3×10^8 platelets/mL. (Platelet count was determined with the aid of a hemacytometer.) Peptides and stimulants were added to these suspensions in 1% dilutions. The PRP and gel-filtered platelets were used within three hours from the time of blood collection.
The peptides described in this Example were synthesized according to the methods of Examples I and XI. Selectivity and potency were measured according to the methods of Examples II through XI. The peptide identification numbers used in this Example are consistent and relevant to this Example only. Some of the peptides are identified by other nomenclature elsewhere in this document.

αvβ5 [4] = test: αvβ5 ELISA IC50 (μM)
Excerpt: Table printed on a drawing sheet, FIG. 17
Title: Modifications of G(Pen)[…]
(§1) Head of the field: αvβ5 ELISA IC50 (μM)
The patent's description of the figure: FIG. 17 is a Table showing the effect of modifications of Pen residue at position −3 (as defined, infra) on potency and selectivity.
First copying reader's note: Underlining in the printed sequences marks the cyclized part; the footnotes a and b are referenced but not printed on the sheet.
(§2) Where the first naming reader finds the target: head: αvβ5 ELISA IC50 (μM)

coronary thrombosis = test: Electrically induced canine coronary thrombosis (time to full occlusion); assay type: in vivo, dog
Description: Male mongrel dogs weighing 14 to 20 kg were selected based on proper aggregation of their platelets in response to arachidonic acid, collagen, and adenosine disphosphate (ADP) and based on similar weights and hemodynamic properties.
Before surgery, the animals were anesthetized with sodium pentobarbital (30 mg/kg, i.v.) and then intubated and ventilated on room air with positive pressure using a respirator (Harvard Apparatus, S. Natick, Mass.) at a volume of 30 ml/kg and a frequency of 12 breaths/min. Surgery, performed under aseptic conditions, was begun with the placement of cannulae into the left carotid artery and jugular vein for monitoring arterial blood pressure (Statham P23 pressure transducer, Gould, Inc., Cardiovascular Products, Oxnard, Calif.) and administering intravenous fluids.
The heart was exposed via a left thoracotomy through the 5th intercostal space. A 2-cm segment of the left circumflex coronary artery (LCCA) was isolated from surrounding tissue by blunt dissection. […] The intra-coronary electrode was constructed by attaching a 25-gauge hypodermic needle tip to a 30-gauge Teflon-insulated silver-coated copper wire. The mechanical occluder was constructed of stainless steel in a C shape with a Teflon screw (2 mm diameter) on top. It was adjusted to control vessel circumference and decrease the reactive hyperemic flow due to a 10-sec (full) occlusion by 50-70% without affecting basal coronary blood flow (FIG. 1). A monopolar epicardial electrode was sutured to the surface of the ventricle in the region of LCCA distribution to monitor ischemic changes in the electrocardiogram (ECG). The left atrium was cannulated with polythylene tubing for administration of the peptide. Continuous recordings of blood pressure, limb lead II ECG, epicardial electrogram, and mean and phasic LCCA blood flow were obtained on a Model 7 polygraph (Grass Instrument Co., Quincy, Mass.).
One hour after the completion of surgery, a 100 micro-amp continuous anodal direct current delivered from a 9 volt nickel-cadmium battery was applied to the intimal surface of the LCCA. The anode of the battery was in series with a 250,000 ohm potentiometer and the intraluminal coronary artery electrode. The electric circuit was completed by placing the cathode in a subcutaneous site. Electrical stimulation was applied for three hours. At the conclusion of each experiment, the heart was fibrillated electrically and quickly removed, and the LCCA was dissected free as far as possible to verify the position of the implanted anodal electrode.
(§3) Animals were randomly assigned to two treatment groups: vehicle control (i.e., normal saline) or RGD peptides at various concentrations. Peptides were administered intra-atrially in both bolus and continuous injections. Each bolus injection consisted of 0.5 to 10 mg/kg and was administered 15 minutes before application of the current. A continuous infusion of the same peptide was then started immediately after completion of this initial injection. Animals received a 25 μg/kg/min to 200 μg/kg/min infusion. The anti-thrombotic effects of the peptides were monitored until 30 minutes after the occurrence of a persistent, occlusive thrombus or five hours after the initiation of electrical stimulation (whichever resulted first). If an occlusive thrombus had not developed within four hours after the initiation of current, the peptide infusion was stopped.
Coronary thrombosis was quantified as the time to full occlusion. The effects of the various peptide treatments on coronary thrombosis is illustrated in FIG. 4.

platelets [5] = test: Ex vivo platelet aggregation in the canine coronary thrombosis study; design: species or system dog; settings: 10 mg/kg injection
Description: For all ex vivo studies (see FIG. 3), control aggregation values were standardized to the percentages of light transmission observed in PRP and PPP samples (0% and 100%, respectively).
as §3
Platelet counts and ex vivo aggregation studies were performed one hour before and 1, 3, and 5 hours after application of anodal direct current.
Platelet aggregation was also determined ex vivo at one, three, and five hours after current application. For these studies, arachidonic acid, or collagen was again used to stimulate the platelets.

αvβ5 [6] = test: αvβ5 ELISA IC50 (μM); remark: listed apart in the source
Excerpt: Table printed on a drawing sheet, FIG. 19
(§4) Title: Modifications of R(Pmc)GHRGD(Y-OMe)RCR
as §1
First copying reader's note: The part of each sequence from (Pmc) through C is underlined on the sheet, and the footnotes a,b cited in the head are not printed on it.
as §2

αvβ5 [7] = test: αvβ5 ELISA IC50 (μM); remark: listed apart in the source
Excerpt: Table printed on a drawing sheet, FIG. 20
as §4, §1
First copying reader's note: Footnote marks a, b and c are printed but their texts are not on the sheet; the underlined part of each sequence (Pmc to C) marks the cyclic portion, and D in (DH) and (DY) is a small capital for the D-amino acid.
as §2

T1 sequence (P08514 32-1039): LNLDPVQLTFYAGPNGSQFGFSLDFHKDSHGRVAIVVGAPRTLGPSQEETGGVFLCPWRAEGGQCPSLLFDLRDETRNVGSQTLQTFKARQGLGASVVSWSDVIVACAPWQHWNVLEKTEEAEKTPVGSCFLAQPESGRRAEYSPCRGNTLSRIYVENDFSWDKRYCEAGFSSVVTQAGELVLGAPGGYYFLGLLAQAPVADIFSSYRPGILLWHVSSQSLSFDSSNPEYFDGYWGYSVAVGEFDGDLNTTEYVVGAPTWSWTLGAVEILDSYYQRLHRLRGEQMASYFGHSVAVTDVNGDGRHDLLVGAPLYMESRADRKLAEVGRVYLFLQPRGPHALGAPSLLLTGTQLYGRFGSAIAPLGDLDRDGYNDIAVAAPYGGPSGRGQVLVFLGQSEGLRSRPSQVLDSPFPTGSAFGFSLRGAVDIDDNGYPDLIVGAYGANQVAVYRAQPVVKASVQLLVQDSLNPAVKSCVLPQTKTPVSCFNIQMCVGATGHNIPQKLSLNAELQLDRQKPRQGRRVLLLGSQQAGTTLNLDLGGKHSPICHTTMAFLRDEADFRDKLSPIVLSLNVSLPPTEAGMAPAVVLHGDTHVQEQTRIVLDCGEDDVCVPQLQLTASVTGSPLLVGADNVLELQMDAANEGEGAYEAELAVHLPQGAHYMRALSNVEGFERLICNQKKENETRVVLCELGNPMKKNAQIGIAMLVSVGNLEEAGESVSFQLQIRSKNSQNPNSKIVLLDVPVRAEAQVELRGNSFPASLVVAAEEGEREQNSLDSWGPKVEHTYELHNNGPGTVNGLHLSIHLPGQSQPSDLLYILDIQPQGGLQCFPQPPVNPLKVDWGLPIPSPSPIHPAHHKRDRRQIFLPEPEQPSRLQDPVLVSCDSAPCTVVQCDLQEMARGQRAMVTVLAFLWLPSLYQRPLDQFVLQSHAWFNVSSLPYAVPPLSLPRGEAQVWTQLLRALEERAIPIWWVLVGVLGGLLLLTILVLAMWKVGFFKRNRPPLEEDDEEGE
T1 sequence (P05106 27-788): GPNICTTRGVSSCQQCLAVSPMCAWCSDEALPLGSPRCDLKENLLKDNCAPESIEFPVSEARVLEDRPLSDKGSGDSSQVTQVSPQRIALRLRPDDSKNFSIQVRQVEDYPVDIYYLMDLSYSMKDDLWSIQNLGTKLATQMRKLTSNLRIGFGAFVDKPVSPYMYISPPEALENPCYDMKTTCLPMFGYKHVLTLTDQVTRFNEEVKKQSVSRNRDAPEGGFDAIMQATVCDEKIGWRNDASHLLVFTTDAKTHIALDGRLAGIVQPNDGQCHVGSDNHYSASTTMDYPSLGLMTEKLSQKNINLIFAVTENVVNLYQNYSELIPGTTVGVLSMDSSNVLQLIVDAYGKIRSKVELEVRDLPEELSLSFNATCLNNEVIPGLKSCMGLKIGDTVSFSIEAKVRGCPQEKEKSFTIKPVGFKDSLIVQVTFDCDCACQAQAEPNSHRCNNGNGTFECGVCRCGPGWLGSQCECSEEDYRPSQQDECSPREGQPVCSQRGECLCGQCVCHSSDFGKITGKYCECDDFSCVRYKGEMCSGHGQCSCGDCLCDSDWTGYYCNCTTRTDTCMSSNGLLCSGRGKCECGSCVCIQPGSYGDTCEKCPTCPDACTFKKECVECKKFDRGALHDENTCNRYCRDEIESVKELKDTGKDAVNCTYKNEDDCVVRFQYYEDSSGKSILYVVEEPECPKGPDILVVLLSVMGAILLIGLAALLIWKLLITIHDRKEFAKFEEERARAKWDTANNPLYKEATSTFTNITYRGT

Substance: G(Pen)GRGDTPCA
- IC50 (platelets [1]): 22.3 µM

Substance: G(Pen)LRGDSPCA
- IC50 (platelets [1]): 415 µM
- IC50 (platelets [2]): 308000 nM

Substance: G(Pen)LRGDSRCA
- IC50 (platelets [1]): 41 µM
- IC50 (platelets [2]): 49000 nM

Substance: G(Pen)LRGDTPCA
- IC50 (platelets [1]): 86 µM

Substance: GNPRGD(O-Me-Y)RD-NH2 [20Q]
- potency relative to 17J (platelets [3]; comparator 17J): about three times
- potency relative to 18J (platelets [3]; comparator 18J): about 20 times

Substance: G[Pen]GRGDSFCA (cysteine pairing not given here)
- IC50 (platelets [1]): 115 µM

Substance: L(Pen)GHRGDLRCA
- IC50 (platelets [1]): 10.5 µM

Substance: R2(Pen)GRGDTPCA
- IC50 (platelets [1]): 8.2 µM
- IC50 (platelets [2]): 2700 nM

Substance: R(D-Pen)GHRGDLRCR [analogue 4]
- IC50 (αvβ5 [4]): 10000 nM

Substance: R(Pen)GRGDTPCA
- IC50 (platelets [1]): 7 µM

Substance: R(Pen)GRGDTPCR
- IC50 (platelets [2]): 2000 nM

Substance: R(Pen)GRGDWPCR [4R]
- coronary thrombosis: time to full occlusion (coronary thrombosis; 3 mg/kg): ineffective
- coronary thrombosis: time to full occlusion (coronary thrombosis; 10 mg/kg): prevented occlusion throughout the duration of the study
- ex vivo platelet aggregation by ADP, AA and collagen (platelets [5]): unresponsive to all modes of stimulation at all time points
- IC50 (platelets [2]): 530 nM

Substance: R(Pmc)DHRGD(Y-OMe)RCR [compound 18]
- IC50 (αvβ5 [6]): 7.2 µM

Substance: R(Pmc)G(DY)RGD(Y-OMe)RCR [compound 25]
- IC50 (αvβ5 [7]): 10 µM

Substance: R(Pmc)GHRGDFRCR
- fold increase in platelet aggregation potency on substitution of Leu in analogue 5 (platelets [3]): ~5 fold
- IC50 (platelets [1]): 0.62 µM

Substance: R(Pmc)GHRGDLRCR [analogue 5]
- IC50 (αvβ5 [4]): 1580 nM

Substance: R(Pmc)GHRGDVRCR
- fold increase in platelet aggregation potency on substitution of Leu in analogue 5 (platelets [3]): 4 fold
- IC50 (platelets [1]): 0.69 µM

Substance: R(Pmc)GHRGDYRCR
- IC50 (platelets [1]): 1 µM

Substance: R(Pmc)GPRGD(Y-OMe)RCR [compound 26]
- IC50 (αvβ5 [7]): 1.7 µM

Substance: R(Pmc)GYRGD(Y-OMe)RCR [compound 24]
- IC50 (αvβ5 [7]): 8.8 µM

Substance: R(Pmc)IHRGD(Y-OMe)RCR [compound 20]
- IC50 (αvβ5 [6]): 9.9 µM

Substance: R(Pmc)RHRGD(Y-OMe)RCR [compound 22]
- IC50 (αvβ5 [6]): 6.2 µM

Substance: R(Pmc)SHRGD(Y-OMe)RCR [compound 19]
- IC50 (αvβ5 [6]): 6.6 µM

Substance: R(Tmc)GHRGDLRCR [analogue 7] [listing 1 of 2 here]
- IC50 (αvβ5 [4]): 340 nM

Substance: R(Tmc)GHRGDLRCR [analogue 7] [listing 2 of 2 here]
- fold more potent than analogue 3 in the aggregation assay (platelets [3]; comparator analogue 3): 2 fold

Substance: RGD(O-Me-Y)RE-NH2 [21I]
- reactivity in platelet aggregation relative to 8× (platelets [3]; comparator 8×): about three-fold
